Read-outs that look alike come from different tables or passages of the source.

These results are taken from paper PMC7802075 (ACS Infectious Diseases, 2020).

The target of this experiment is T1, LmjIPCS (inositol phosphorylceramide synthase from L. major) (Leishmania major, UniProt E9AFX2).
T1 sequence (E9AFX2 1-338): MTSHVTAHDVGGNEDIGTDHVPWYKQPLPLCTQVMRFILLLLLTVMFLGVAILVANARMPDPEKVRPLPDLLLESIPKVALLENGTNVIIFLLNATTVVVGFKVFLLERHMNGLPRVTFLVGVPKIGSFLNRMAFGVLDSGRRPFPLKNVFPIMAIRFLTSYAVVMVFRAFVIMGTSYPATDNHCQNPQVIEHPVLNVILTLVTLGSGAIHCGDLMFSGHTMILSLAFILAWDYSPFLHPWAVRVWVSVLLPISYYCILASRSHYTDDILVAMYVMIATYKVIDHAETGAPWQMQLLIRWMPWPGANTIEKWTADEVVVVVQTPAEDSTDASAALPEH
Briefly: biochemical. In kind it is biochemical. Further details: inhibition: dose or concentration left out as unconfirmed. To be noted: for inhibition at 20000 µM: read-out: 20mM inhibition LmjIPCS; for inhibition: read-out: inhibition LmjIPCS.

[1] abbreviates: screening of NINDS set, sheet Screen 1.
The mark [2] stands for this setting: NINDS set screen, single concentration printed as 20mM.

As to `CC[C@H]1OC(=O)C[C@@H](O)[C@H](C)[C@@H](O[C@@H]2O[C@H](C)[C@@H](O[C@H]3C[C@@](C)(O)[C@@H](O)[C@H](C)O3)[C@H](N(C)C)[C@H]2O)[C@@H](CC=O)C[C@@H](C)C(=O)/C=C/C(C)=C/[C@@H]1CO[C@@H]1O[C@H](C)[C@@H](O)[C@@H](OC)[C@H]1OC` [TYLOSIN], the inhibition at 20000 µM is 5%.

Regarding `CO[C@H]1[C@H](O)[C@H](O[C@H]2CC[C@@]3(C=O)[C@H](CC[C@@H]4[C@@H]3CC[C@]3(C)[C@@H](C5=CC(=O)OC5)CC[C@]43O)C2)O[C@@H](C)[C@@H]1O` [PERUVOSIDE], the inhibition at 20000 µM came out at 12%.

As to `O=C1C[C@@H](c2ccc(O)cc2)Oc2cc(O)cc(O)c21` [NARINGENIN], the inhibition is 17%.

For the compound `CN1Cc2c(N)cccc2C(c2ccccc2)C1` (centres unmarked) [NOMIFENSINE], the inhibition stood at 5%.

Consider `CCC(N)C(O)c1ccc(O)c(O)c1` (centres unmarked) [ETHYLNOREPINEPHRINE], for which the inhibition at 20000 µM was -9%.

As for `CCCCNC(=O)NS(=O)(=O)c1ccc(C)cc1` [TOLBUTAMIDE], the inhibition was 30%.

As to `O=C1CCc2cc(OCCCCc3nnnn3C3CCCCC3)ccc2N1` [CILOSTAZOL], where the note is “NINDS set screen”, the inhibition is 14%.

For `CCn1cc(C(=O)O)c(=O)c2cc(F)c(N3CCNC(C)C3)c(F)c21` (centres unmarked) [LOMEFLOXACIN], the inhibition worked out at 4%.

Turning to `C=C1[C@@H]2CC[C@H]3[C@]4(C)C[C@H](O[C@@H]5O[C@H](CO)[C@@H](OS(=O)(=O)O)[C@H](OS(=O)(=O)O)[C@H]5OC(=O)CC(C)C)C[C@@H](C(=O)O)[C@H]4CC[C@]3(C2)[C@H]1O` [ATRACTYLOSIDE], the inhibition at 20000 µM was found to be 18%.

For the compound `Cc1ccccc1OCC(O)CO` (centres unmarked) [MEPHENESIN], under setting [1], the inhibition worked out at 3.35%.

Turning to CRESOL, the “20mM inhibition LmjIPCS” value is on record as 53%.

For the compound `O=C(O)CC[N+](=O)[O-]` [BOVINOCIDIN], the “20mM inhibition LmjIPCS” value was 21%.

Regarding `CC(NC(C)(C)C)C(=O)c1cccc(Cl)c1` (centres unmarked) [BUPROPION], the inhibition is 29%.

Turning to `COC(=O)C(C)c1ccc(C(=O)c2cccs2)cc1` (centres unmarked) [SUPROFEN METHYL ESTER], for the setting “NINDS set screen”, the inhibition is -10%.

Take `O=C(CCCCC(=O)Nc1c(I)cc(I)c(C(=O)O)c1I)Nc1c(I)cc(I)c(C(=O)O)c1I` [IODIPAMIDE]: the inhibition at 20000 µM amounted to 7%.

For the compound `CC[C@H](c1ccc(O)cc1)[C@@H](CC)c1ccc(O)cc1` [HEXESTROL], under setting [2], the “20mM inhibition LmjIPCS” value was 34%.

For the compound `CC(=O)NCCCCCC(=O)O` [ACEXAMIC ACID], the inhibition under setting [1] was determined as 6%.

For `Cc1ccsc1/C=C/C1=NCCCN1C` [MORANTEL], the “20mM inhibition LmjIPCS” value came out at 60%.

Turning to `O=C1c2ccccc2C(=O)c2c(O)c(O)cc(O)c21` [PURPURIN], the “20mM inhibition LmjIPCS” value came to 35%.

Consider `c1ccc([C@H]2CN3CCSC3=N2)cc1` [LEVAMISOLE], for which the inhibition at 20000 µM stood at 2.52%.

As to `CN(C)[C@@H]1C(O)=C(C(N)=O)C(=O)[C@@]2(O)C(O)=C3C(=O)c4c(O)cccc4[C@@](C)(O)[C@H]3C[C@@H]12` [TETRACYCLINE], the “20mM inhibition LmjIPCS” value worked out at 36%.

Turning to `CCC(Cc1c(I)cc(I)c(N)c1I)C(=O)O` (centres unmarked) [IOPANIC ACID], the “20mM inhibition LmjIPCS” value is listed as 7.62%.

Turning to `CNC(=O)Oc1ccc2c(c1)[C@]1(C)CCN(C)[C@@H]1N2C` [ESERINE], the “20mM inhibition LmjIPCS” value was 9%.

As for `CN[C@@H]1[C@H](O)[C@H](NC)[C@H]2O[C@@]3(O)C(=O)C[C@@H](C)O[C@H]3O[C@@H]2[C@H]1O` [SPECTINOMYCIN], the inhibition at 20000 µM was 19%.

As for `CC(=O)N[C@@H](CC(=O)O)C(=O)O` [N-ACET[…]], the inhibition at 20000 µM is -3%.

In the case of `CCC1(CC)C(=O)C=CNC1=O` [PYRITHYLDIONE], the “20mM inhibition LmjIPCS” value came to 52%.

For the compound `Nc1ncnc2c1ncn2[C@@H]1O[C@H](CO)[C@@H](O)[C@H]1O` [ADENOSINE], the “20mM inhibition LmjIPCS” value was determined as 41%.

For `Nc1c2c(nc3ccccc13)CCCC2O.O=C(O)/C=C\C(=O)O` (centres unmarked) [HYDROXYTACRINE MALEATE], the “20mM inhibition LmjIPCS” value is 11%.

On to `CN[C@@H]1[C@@H](O)[C@@H](O[C@@H]2[C@@H](O)[C@H](O[C@H]3OC(CN)=CC[C@H]3N)[C@@H](N)C[C@H]2N)OC[C@]1(C)O` [SISOMICIN], for which the inhibition at 20000 µM was 19%.

`CC(C(=O)O)c1ccc(-c2ccccc2)c(F)c1` (centres unmarked) [FLURBIPROFEN]: the inhibition turned out to be 4%.

Take `NC(=O)NC1NC(=O)NC1=O` (centres unmarked) [ALLANTOIN]: the inhibition at 20000 µM came to 18%.

Regarding `CN1CCc2cccc3c2[C@H]1Cc1ccc(O)c(O)c1-3` [APOMORPHINE], under setting [2], the “20mM inhibition LmjIPCS” value is listed as 47%.

Consider `N[C@@H](Cc1ccc(O)c(O)c1)C(=O)O` [LEVODOPA], for which the inhibition turned out to be 21%.

On to `CCCCCCc1ccc(O)cc1O` [HEXYLRESORCINOL], for which, under setting [2], the “20mM inhibition LmjIPCS” value was 47%.

Take `Cc1nc(C)c(Cl)c(O)c1Cl` [CLOPIDOL]: the inhibition under setting [1] came out at 7%.

Turning to `CC(C(=O)O)c1ccc(C(=O)c2cccs2)cc1` (centres unmarked) [SUPROFEN], the inhibition at 20000 µM was 5%.

With `O=C(/C=C/c1ccc(O)c(O)c1)O[C@H](Cc1ccc(O)c(O)c1)C(=O)O` [ROSMARINIC ACID], the “20mM inhibition LmjIPCS” value was 58%.

For the compound `c1ccc(/N=N/c2ccccc2)cc1` [AZOBENZENE], the inhibition at 20000 µM amounted to 2.28%.

Take `CC(=O)O[C@]1(C(C)=O)CC[C@H]2[C@@H]3C=C(Cl)C4=CC(=O)CC[C@]4(C)[C@H]3CC[C@@]21C` [CHLORMADINONE ACETATE]: the inhibition at 20000 µM worked out at 13%.

Regarding `CC(=O)OCC(=O)[C@@]12OC(C)(C)O[C@@H]1C[C@H]1[C@@H]3C[C@H](F)C4=CC(=O)C=C[C@]4(C)[C@@]3(F)[C@@H](O)C[C@@]12C` [FLUOCINONIDE], the inhibition at 20000 µM was 6%.

Regarding `Cc1c(NC(C)C)c(=O)n(-c2ccccc2)n1C` [RAMIFENAZONE], the inhibition (NINDS set screen) is 0.419%.

As to `CCN(CC)CCOCCOC(=O)C1(c2ccccc2)CCCC1` [CARBETAPENTANE], the “20mM inhibition LmjIPCS” value was 51%.

In the case of `C[C@H](CCC(=O)O)[C@H]1CC[C@H]2[C@@H]3[C@@H](O)C[C@@H]4C[C@H](O)CC[C@]4(C)[C@H]3CC[C@]12C` [URSODIOL], the inhibition is 8%.

Regarding `CN[C@H](CC(C)C)C(=O)N[C@H]1C(=O)N[C@@H](CC(N)=O)C(=O)N[C@H]2C(=O)N[C@H]3C(=O)N[C@H](C(=O)N[C@H](C(=O)O)c4cc(O)cc(O)c4-c4cc3ccc4O)[C@H](O)c3ccc(c(Cl)c3)Oc3cc2cc(c3O[C@@H]2O[C@H](CO)[C@@H](O)[C@H](O)[C@H]2O[C@H]2C[C@](C)(N)[C@H](O)[C@H](C)O2)Oc2ccc(cc2Cl)[C@H]1O` [VANCOMYCIN], the inhibition at 20000 µM stood at 31%.

`Nc1ccc(S(N)(=O)=O)cc1` [SULFANILAMIDE]: the inhibition at 20000 µM is -1.19%.

As for `NCC(O)CC(=O)O` (centres unmarked) [AMINOHYDROXYBUTYRIC ACID], the “20mM inhibition LmjIPCS” value amounted to 4%.

`CC1(C)S[C@@H]2[C@H](NC(=O)[C@H](N)c3ccccc3)C(=O)N2[C@H]1C(=O)O` [AMPICILLIN]: the inhibition amounted to 29%.

On to `CNC[C@H](O)c1ccc(O)c(O)c1.O=C(O)C(O)C(O)C(=O)O` [ADRENALINE BITARTRATE], for which, for the setting “NINDS set screen, single concentration 20mM as printed”, the “20mM inhibition LmjIPCS” value is -5.34%.

For the compound `CO[C@@]1(NC(=O)C(C(=O)O)c2ccc(O)cc2)C(=O)N2C(C(=O)O)=C(CSc3nnnn3C)CO[C@@H]21` (some centres unmarked) [MOXALACTAM], the inhibition at 20000 µM amounted to 10%.

As for `CCn1cc(C(=O)O)c(=O)c2cc(F)c(N3CCNCC3)cc21` [NORFLOXACIN], the inhibition worked out at 17%.

`CC(C)OC(=O)C(C)(C)Oc1ccc(C(=O)c2ccc(Cl)cc2)cc1` [FENOFIBRATE]: the “20mM inhibition LmjIPCS” value amounted to 58%.

Consider `CN[C@@H]1[C@@H](O)[C@@H](O[C@@H]2[C@@H](O)[C@H](O[C@H]3O[C@H]([C@@H](C)O)[C@@H](O)[C@H](O)[C@H]3N)[C@@H](N)C[C@H]2N)OC[C@]1(C)O` [GENETICIN], for which the inhibition at 20000 µM is 13%.

Regarding `CC(=O)/N=c1/sc(S(N)(=O)=O)nn1C` [METHAZOLAMIDE], the inhibition (NINDS set screen) was -4.59%.

With `C=C1c2cccc(O)c2C(=O)C2=C(O)[C@]3(O)C(=O)C(C(N)=O)=C(O)[C@@H](N(C)C)[C@@H]3[C@@H](O)[C@H]12` [METHACYCLINE], the inhibition at 20000 µM came out at 33%.

With `CN(C)CCC(c1ccc(Br)cc1)c1ccccn1` (centres unmarked) [BROMPHENIRAMINE], the inhibition at 20000 µM is 14%.

`CC(C)(S)[C@@H](N)C(=O)O` [PENICILLAMINE]: the inhibition at 20000 µM amounted to 20%.

Take `CCCCCCCC/C=C/CCCCCCCCOP(=O)([O-])OCC[N+](C)(C)C` [ELAIDYLPHOSPHOCHOLINE]: the inhibition (NINDS set screen) is -7%.

Consider `CC(=O)OCC1=C(C(=O)O)N2C(=O)[C@@H](NC(=O)CSc3ccncc3)[C@H]2SC1` [CEPHAPIRIN], for which the “20mM inhibition LmjIPCS” value is listed as 47%.

Regarding `CC(COc1ccccc1)N(CCCl)Cc1ccccc1` (centres unmarked) [PHENOXYBENZAMINE], the inhibition at 20000 µM amounted to 31%.

In the case of `Cc1cc2c(C(C)C)c(O)c(O)c(C=O)c2c(O)c1-c1c(C)cc2c(C(C)C)c(O)c(O)c(C=O)c2c1O` [GOSSYPOL], the “20mM inhibition LmjIPCS” value worked out at 37%.

Regarding `O=C(O)c1cc([N+](=O)[O-])ccc1NCCCc1ccccc1` [5-NITRO-2-PHENYLPROPYLAMINOBENZOIC ACID], the “20mM inhibition LmjIPCS” value was 15%.

Consider `CC(C(=O)O)c1ccc2c(c1)[nH]c1ccc(Cl)cc12` (centres unmarked) [CARPROFEN], for which the inhibition under setting [1] stood at 7%.

For the compound `O=c1oc2cc(O)ccc2s1` [TIOXOLONE], under setting [1], the inhibition stood at 3%.

Take `CCCc1nn(C)c2c(=O)[nH]c(-c3cc(S(=O)(=O)N4CCN(C)CC4)ccc3OCC)nc12`: the “20mM inhibition LmjIPCS” value is recorded as 50%.

On to `NCCCS(=O)(=O)O` [3-AMINOPROPANESULPHONIC ACID], for which, for the setting “single concentration 20mM as printed, screening of NINDS set, sheet Screen 1”, the “20mM inhibition LmjIPCS” value amounted to 3.28%.

In general, inhibition refers to the drop in the measured response relative to a control, in per cent.
